Test results as given in patent publication US12173001B1, “Pyrido[3,4-e][1,2,4]triazolo[4,3-c]pyrimidines as CK2 inhibitors” (King Faisal University, priority 2024, dated 2024).

Key:
HCT116 (colon) = assay: In vitro cytotoxic activity (MTT) assay, HCT116; format: cell-based; conditions: Homo sapiens, HCT-116, cells exposed for 96 hours, read-out: Cytotoxicity activity IC50 (50% inhibition of cell proliferation)
Protocol: (§1) Compounds 1-16 were screened for their in vitro cytotoxic activity utilizing a 3-(4,5-dimethyl-thiazol-2-yl)-2,5-diphenyltetrazolium bromide (MTT) assay against selected cancer human cell lines consisting of PC3 (prostate), HCT116 (colon), A375 (melanoma), H1299 (lung), MIAPaCa-2 (pancreas), HL60 (leukemia), MCF7 (breast), MDA-MB-231 (breast) (T. Mosmann, J. Immunol. Meth., 1983, 65, 55-63). The cells were cultured at 37° C. in RMPI1640 medium supplemented with 10% fetal bovine serum, 50 IU/mL penicillin, and […] streptomycin in a 5% CO2 incubator. All cells were sub-cultured 3 times/week by trypsinization. Viable cells were seeded and allowed to adhere for 12 hours before a test drug was added in 96-well plates at an initial density of 1.0×10^5 cells/mL. Tumor cell lines were separately exposed to various concentrations of the tested compounds followed by incubation at a temperature of 37° C. during 96 hours inside a medium of fresh RMPI 1640. Cells were subsequently incubated at 37° C. using MTT at 0.5 mg/mL during 4 hours. After removal of supernatant, formazan crystals were dissolved in isopropanol and the optical density was measured at 570 nm. CX-4945 was used as a positive control.

HL60 (leukemia) = assay: In vitro cytotoxic activity (MTT) assay, HL60; format: cell-based; conditions: Homo sapiens, HL-60, cells exposed for 96 hours, read-out: Cytotoxicity activity IC50 (50% inhibition of cell proliferation)
Protocol: as §1

recombinant human CK2 = target: T1, recombinant human CK2 (Homo sapiens, UniProt P68400); assay: CK2 Kinase Assay (33P-ATP, filter plate); format: biochemical; conditions: final ATP concentration 15 μM, 10 min at 30° C.; read-out: protein kinase CK2 activity IC50
T1 construct: purchased Millipore
Protocol: CK2 Kinase Assay was conducted using the protocol as described in Pierre F. et al; J. Med. Chem. 2011, 54, 635-654. The tested compounds in aqueous solution were added at a volume of 10 μL to a reaction mixture comprising 10 μL of assay dilution buffer (ADB; 20 mM MOPS, pH 7.2, 25 mM β-glycerol phosphate, 5 mM EGTA, 1 mM sodium orthovanadate, and 1 mM dithiothreitol), 10 μL of substrate peptide (RRRDDDSDDD (SEQ 1), dissolved in ADB at a concentration of 1 mM), 10 μL of recombinant human CK2 (RROP-holoenzyme, 25 ng dissolved in ADB; Millipore). Reactions were initiated by the addition of 10 μL of ATP solution (90% 75 mMMgCl2, 75 μM ATP (final ATP concentration: 15 μM) dissolved in ADB; 10% [γ-33P] ATP (stock 1mCi/100 μL; 3000 Ci/mmol (Perkin-Elmer) and maintained for 10 min at 30° C. The reactions were quenched with 100 μL of 0.75% phosphoric acid and then transferred to and filtered through a phosphor cellulose filter plate (Millipore). After washing each well five times with 0.75% phosphoric acid, the plate was dried under vacuum for 5 min and, following the addition of 15 μL of scintillation fluid to each well, the residual radioactivity was measured using a Wallac luminescence counter. The IC50 values were derived from eight concentrations of test inhibitors.

PC3 (prostate) = assay: In vitro cytotoxic activity (MTT) assay, PC3; format: cell-based; conditions: Homo sapiens, Prostate cell, cells exposed for 96 hours, read-out: Cytotoxicity activity IC50 (50% inhibition of cell proliferation)
Protocol: as §1

MCF7 (breast) = assay: In vitro cytotoxic activity (MTT) assay, MCF7; format: cell-based; conditions: Homo sapiens, cells exposed for 96 hours, read-out: Cytotoxicity activity IC50 (50% inhibition of cell proliferation)
Protocol: as §1

A375 (melanoma) = assay: In vitro cytotoxic activity (MTT) assay, A375; format: cell-based; conditions: Homo sapiens, A-375, cells exposed for 96 hours, read-out: Cytotoxicity activity IC50 (50% inhibition of cell proliferation)
Protocol: as §1

MIAPaCa-2 (pancreas) = assay: In vitro cytotoxic activity (MTT) assay, MIAPaCa-2; format: cell-based; conditions: Homo sapiens, MIA PaCa-2, cells exposed for 96 hours, read-out: Cytotoxicity activity IC50 (50% inhibition of cell proliferation)
Protocol: as §1

H1299 (lung) = assay: In vitro cytotoxic activity (MTT) assay, H1299; format: cell-based; conditions: Homo sapiens, NCI-H1299, cells exposed for 96 hours, read-out: Cytotoxicity activity IC50 (50% inhibition of cell proliferation)
Protocol: as §1

MDA-MB-231 (breast) = assay: In vitro cytotoxic activity (MTT) assay, MDA-MB-231; format: cell-based; conditions: Homo sapiens, cells exposed for 96 hours, read-out: Cytotoxicity activity IC50 (50% inhibition of cell proliferation)
Protocol: as §1

T1 sequence (P68400 whole entry): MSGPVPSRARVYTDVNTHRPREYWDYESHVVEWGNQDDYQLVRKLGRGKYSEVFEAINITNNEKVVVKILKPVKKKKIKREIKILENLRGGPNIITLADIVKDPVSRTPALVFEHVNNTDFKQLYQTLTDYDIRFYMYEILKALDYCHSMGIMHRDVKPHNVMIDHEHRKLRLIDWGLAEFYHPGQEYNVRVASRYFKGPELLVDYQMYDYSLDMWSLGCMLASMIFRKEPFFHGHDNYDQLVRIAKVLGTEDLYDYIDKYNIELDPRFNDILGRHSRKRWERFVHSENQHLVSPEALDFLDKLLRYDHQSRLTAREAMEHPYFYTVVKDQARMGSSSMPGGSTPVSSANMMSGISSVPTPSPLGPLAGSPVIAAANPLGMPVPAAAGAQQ
T1 sequence (P67870 whole entry partner): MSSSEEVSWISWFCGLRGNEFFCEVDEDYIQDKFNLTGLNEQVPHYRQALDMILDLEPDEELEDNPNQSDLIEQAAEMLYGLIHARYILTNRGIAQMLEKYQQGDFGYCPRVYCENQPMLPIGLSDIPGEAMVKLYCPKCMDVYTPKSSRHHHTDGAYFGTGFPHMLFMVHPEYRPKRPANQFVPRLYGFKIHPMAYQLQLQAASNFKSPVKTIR

O=C(O)c1nnc2c3cnccc3nc(Nc3cccc(Cl)c3)n12 [Compound 1, 5-((3-chlorophenyl)amino)pyrido[3,4-e][1,2,4]triazolo[4,3-c]pyrimidine-3-carboxylic acid]
IC50 (HCT116 (colon)): 2.8 µM | IC50 (HL60 (leukemia)): 5.8 µM | IC50 (recombinant human CK2): 0.032 µM | IC50 (PC3 (prostate)): 1.5 µM | IC50 (MCF7 (breast)): 4.9 µM | IC50 (A375 (melanoma)): 5.4 µM | IC50 (MIAPaCa-2 (pancreas)): 1.3 µM | IC50 (H1299 (lung)): 3.1 µM | IC50 (MDA-MB-231 (breast)): 4.5 µM
